Experiments:
[1] = target: T1, hTRPA1 C633S/C856S double mutant (Homo sapiens, UniProt O75762, C633S/C856S); test: Calcium imaging of transfected HEK cells; type: cell-based; conditions: compared with WT channels
T1 construct: expressed in transfected cells; host or cells: HEK293
Method: Reactive electrophilic compounds activate TRPA1 channels through the covalent modification of specific cysteine residues including those at amino acid positions 621, 633, and 856. Point mutations in these cysteines can reduce hTRPA1 activation by specific ligands without disrupting overall channel function^39,40. To determine if these cysteine residues are also important for TRPA1 activation by optovin, intracellular calcium levels were measured in cells transfected with wildtype and mutant hTRPA1 channels. […] Rhodanine and hydantoin are photoelectric moieties used in photovoltaic panels and other photochemical applications^41,42. Nevertheless, photosensitization alone is insufficient to grant optovin its unusual biological activity. For example, optovin is phenotypically unique compared to 171 additional rhodanine-containing compounds contained in the screening library (data not shown).
HEK293 cells were plated onto poly-lysine-coated glass bottom culture dishes (MatTek Corp), and grown in Dulbecco's Modified Eagle's Medium (DMEM, Sigma) supplemented with 10% fetal bovine serum and 100 U/mL penicillin and 100 μg/ml streptomycin. After 24 hrs, cells were transfected, according to manufacturer's instructions, in Opti-MEM media, using 4 μl lipofectamine 2000 (Invitrogen), 0.5 ug EGFP in pcDNA, and 0.3 μg TrpA1 DNA per dish. Media was replaced after 2 hours, and cells were cultured for an additional 17 hours. As previously described for neurons, HEK cells were washed with assay buffer (HBSS Gibco 14025, supplemented with 9 mM HEPES, 11 mM D-glucose, 0.1% fatty-acid free BSA, pH 7.3) and incubated for 1 h with 2 μM Fura2-AM (Invitrogen) with 0.2% pluronic (Invitrogen) in assay buffer in the dark at room temperature. The cells were then washed with assay buffer and allowed to equilibrate at room temperature for 30 min prior to imaging. At the start of the imaging session for each dish, cells were replaced with DMSO-assay buffer. After 50 seconds of imaging, assay buffer was aspirated by hand, and replaced with 100 μM optovin dissolved in the DMSO-assay buffer solution. […]

[2] = test system: dorsal root ganglia (DRG) sensory neurons; test: Calcium imaging of DRG sensory neurons; type: cell-based, mouse
Method: To determine if optovin acts on sensory neurons, the activity of treated and untreated dorsal root ganglia (DRG) sensory neurons isolated from wild type mice were compared. […] TRPA1 channels play important roles in detecting chemical, thermal, and mechanical stimuli in a variety of organisms^34,35.
C57Bl/6 male mice (3-4 weeks old) were decapitated and DRG were dissected into 4° C. Hank's Balanced Salt Solution (HBSS; Gibco), then neurons were dissociated using collagenase (1 mg/mL; Worthington) and dispase (5 mg/mL; Gibco) dissolved in HBSS. Neurons were plated in Neurobasal-A medium (Invitrogen), supplemented with B-27 Supplement (Gibco), L-glutamine (Gibco), and penicillin-streptomycin (Gibco). The neurons were plated onto coverslips coated with 0.1 mg/mL poly-D-lysine (Sigma) and 5 μg/mL laminin (Sigma). After 24 h, neurons were washed with assay buffer (HBSS, supplemented with 9 mM HEPES, 11 mM D-glucose, 0.1% fatty-acid free BSA, pH 7.3) and incubated for 1 h with 2 μM Fura2-AM (Invitrogen) with 0.2% pluronic (Invitrogen) in assay buffer in the dark at room temperature. The neurons were then washed with assay buffer and allowed to equilibrate at room temperature for 30 min prior to imaging. After a 120 s baseline perfusion of assay buffer containing 3.3% DMSO, 100 μM optovin dissolved in the DMSO-assay buffer solution, or the DMSO-assay buffer solution alone as a control, was perfused onto the neurons for a period of 1 min. Fura-2 is activated with UV-light, and the process of imaging Fura-2 was enough to activate the optovin. […] Following this one-minute period, cells were perfused with DMSO-assay buffer to remove the agonist, which was followed by addition of 100 μM mustard oil (in DMSO-assay buffer) to determine the total number of TrpA1-expressing neurons present. Images were acquired on a Nikon Eclipse Ti microscope (Nikon, Melville, N.Y.).

T1 sequence (O75762 whole entry C633S/C856S): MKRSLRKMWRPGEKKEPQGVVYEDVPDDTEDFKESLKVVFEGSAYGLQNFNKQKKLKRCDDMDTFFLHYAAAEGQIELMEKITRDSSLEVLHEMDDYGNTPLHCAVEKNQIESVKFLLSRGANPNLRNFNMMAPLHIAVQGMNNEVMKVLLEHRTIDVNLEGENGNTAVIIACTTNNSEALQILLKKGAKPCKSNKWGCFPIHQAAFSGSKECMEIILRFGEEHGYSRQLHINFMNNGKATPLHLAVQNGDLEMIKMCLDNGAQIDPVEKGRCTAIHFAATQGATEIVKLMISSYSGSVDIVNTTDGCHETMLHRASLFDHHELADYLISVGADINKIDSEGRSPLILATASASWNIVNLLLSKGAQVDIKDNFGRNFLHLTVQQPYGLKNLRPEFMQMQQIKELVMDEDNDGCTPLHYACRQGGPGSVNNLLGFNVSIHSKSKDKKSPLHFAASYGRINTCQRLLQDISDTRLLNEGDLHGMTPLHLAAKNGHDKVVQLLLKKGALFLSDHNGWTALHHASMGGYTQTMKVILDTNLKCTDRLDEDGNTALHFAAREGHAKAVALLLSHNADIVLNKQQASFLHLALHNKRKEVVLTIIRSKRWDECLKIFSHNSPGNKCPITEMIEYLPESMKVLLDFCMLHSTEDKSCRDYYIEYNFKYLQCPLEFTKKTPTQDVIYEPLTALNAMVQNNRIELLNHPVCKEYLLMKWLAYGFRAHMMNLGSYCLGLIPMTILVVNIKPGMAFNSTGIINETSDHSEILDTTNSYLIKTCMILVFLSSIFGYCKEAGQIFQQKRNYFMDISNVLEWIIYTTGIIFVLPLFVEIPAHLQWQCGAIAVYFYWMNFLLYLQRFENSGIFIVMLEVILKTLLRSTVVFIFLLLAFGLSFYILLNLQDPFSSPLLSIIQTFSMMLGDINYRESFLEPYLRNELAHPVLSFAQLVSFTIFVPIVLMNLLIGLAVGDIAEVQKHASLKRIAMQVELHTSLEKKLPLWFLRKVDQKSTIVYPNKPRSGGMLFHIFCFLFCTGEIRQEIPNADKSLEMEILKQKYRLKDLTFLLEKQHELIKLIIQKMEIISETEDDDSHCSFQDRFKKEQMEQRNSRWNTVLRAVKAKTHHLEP

## Cc1cc(/C=C2/SC(=S)NC2=O)c(C)n1-c1cccnc1 [optovin]
[1]
  response to light and optovin (intracellular calcium): significantly decreased response
[2]; 100 μM optovin, illuminated (Fura-2 imaging)
  activation of DRG neurons with light: strongly activated
[2]; optovin treatment in the dark
  activation of DRG neurons in the dark: did not occur

Reference: patent US9486447B2, “Compositions and methods for controlling neuronal excitation” (The General Hospital Corporation, priority 2011, dated 2016)
